Drawing on ChEMBL document CHEMBL1150977, “A quantitative analysis of kinase inhibitor selectivity” (Nat Biotechnol, 2008), this text covers Kd for 5 compounds.

Experiment [1] addresses AP2-associated protein kinase 1 (Homo sapiens, UniProt Q2M2I8).
The target of experiment [2] is Dual specificity protein kinase CLK1 (Homo sapiens, UniProt P49759).
The target in experiment [3] is Proto-oncogene tyrosine-protein kinase receptor Ret (Homo sapiens, UniProt P07949).
The target of experiment [4] is T1, Serine/threonine-protein kinase 36 (Homo sapiens, UniProt Q9NRP7).
T1 sequence (Q9NRP7 whole entry): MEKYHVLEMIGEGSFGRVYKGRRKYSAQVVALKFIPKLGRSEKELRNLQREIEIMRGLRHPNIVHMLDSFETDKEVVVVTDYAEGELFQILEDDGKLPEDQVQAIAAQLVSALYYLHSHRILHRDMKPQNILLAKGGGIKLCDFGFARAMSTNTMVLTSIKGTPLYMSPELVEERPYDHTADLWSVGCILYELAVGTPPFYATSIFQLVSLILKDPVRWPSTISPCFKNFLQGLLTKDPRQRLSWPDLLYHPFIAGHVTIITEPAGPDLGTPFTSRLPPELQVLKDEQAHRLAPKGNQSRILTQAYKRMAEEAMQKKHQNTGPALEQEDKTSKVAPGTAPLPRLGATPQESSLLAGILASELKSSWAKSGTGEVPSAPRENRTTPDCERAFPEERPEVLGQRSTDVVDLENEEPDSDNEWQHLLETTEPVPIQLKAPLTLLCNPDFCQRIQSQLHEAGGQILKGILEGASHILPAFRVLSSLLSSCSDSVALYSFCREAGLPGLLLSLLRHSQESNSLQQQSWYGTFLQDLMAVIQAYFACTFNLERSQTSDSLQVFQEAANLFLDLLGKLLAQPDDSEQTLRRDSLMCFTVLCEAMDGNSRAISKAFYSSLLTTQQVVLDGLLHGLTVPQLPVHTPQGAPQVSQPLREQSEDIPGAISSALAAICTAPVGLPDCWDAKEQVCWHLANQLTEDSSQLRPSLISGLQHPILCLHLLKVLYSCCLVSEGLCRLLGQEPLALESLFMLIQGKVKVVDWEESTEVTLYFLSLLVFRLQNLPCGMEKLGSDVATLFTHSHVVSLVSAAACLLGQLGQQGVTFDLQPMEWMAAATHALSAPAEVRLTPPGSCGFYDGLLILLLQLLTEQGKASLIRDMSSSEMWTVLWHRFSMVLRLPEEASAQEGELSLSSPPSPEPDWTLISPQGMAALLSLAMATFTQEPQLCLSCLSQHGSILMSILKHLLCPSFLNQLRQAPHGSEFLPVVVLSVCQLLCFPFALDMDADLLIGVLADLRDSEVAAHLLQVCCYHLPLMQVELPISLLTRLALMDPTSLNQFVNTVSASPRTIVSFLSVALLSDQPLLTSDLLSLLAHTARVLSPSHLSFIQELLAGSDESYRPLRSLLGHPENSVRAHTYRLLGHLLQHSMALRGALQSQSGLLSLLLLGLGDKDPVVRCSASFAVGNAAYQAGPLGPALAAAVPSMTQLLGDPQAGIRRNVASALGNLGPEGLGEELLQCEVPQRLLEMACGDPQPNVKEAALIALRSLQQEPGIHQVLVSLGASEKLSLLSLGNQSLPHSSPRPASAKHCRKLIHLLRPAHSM

The target of experiment [5] is T2, Cyclin-G-associated kinase (Homo sapiens, UniProt O14976).
T2 sequence (O14976 whole entry): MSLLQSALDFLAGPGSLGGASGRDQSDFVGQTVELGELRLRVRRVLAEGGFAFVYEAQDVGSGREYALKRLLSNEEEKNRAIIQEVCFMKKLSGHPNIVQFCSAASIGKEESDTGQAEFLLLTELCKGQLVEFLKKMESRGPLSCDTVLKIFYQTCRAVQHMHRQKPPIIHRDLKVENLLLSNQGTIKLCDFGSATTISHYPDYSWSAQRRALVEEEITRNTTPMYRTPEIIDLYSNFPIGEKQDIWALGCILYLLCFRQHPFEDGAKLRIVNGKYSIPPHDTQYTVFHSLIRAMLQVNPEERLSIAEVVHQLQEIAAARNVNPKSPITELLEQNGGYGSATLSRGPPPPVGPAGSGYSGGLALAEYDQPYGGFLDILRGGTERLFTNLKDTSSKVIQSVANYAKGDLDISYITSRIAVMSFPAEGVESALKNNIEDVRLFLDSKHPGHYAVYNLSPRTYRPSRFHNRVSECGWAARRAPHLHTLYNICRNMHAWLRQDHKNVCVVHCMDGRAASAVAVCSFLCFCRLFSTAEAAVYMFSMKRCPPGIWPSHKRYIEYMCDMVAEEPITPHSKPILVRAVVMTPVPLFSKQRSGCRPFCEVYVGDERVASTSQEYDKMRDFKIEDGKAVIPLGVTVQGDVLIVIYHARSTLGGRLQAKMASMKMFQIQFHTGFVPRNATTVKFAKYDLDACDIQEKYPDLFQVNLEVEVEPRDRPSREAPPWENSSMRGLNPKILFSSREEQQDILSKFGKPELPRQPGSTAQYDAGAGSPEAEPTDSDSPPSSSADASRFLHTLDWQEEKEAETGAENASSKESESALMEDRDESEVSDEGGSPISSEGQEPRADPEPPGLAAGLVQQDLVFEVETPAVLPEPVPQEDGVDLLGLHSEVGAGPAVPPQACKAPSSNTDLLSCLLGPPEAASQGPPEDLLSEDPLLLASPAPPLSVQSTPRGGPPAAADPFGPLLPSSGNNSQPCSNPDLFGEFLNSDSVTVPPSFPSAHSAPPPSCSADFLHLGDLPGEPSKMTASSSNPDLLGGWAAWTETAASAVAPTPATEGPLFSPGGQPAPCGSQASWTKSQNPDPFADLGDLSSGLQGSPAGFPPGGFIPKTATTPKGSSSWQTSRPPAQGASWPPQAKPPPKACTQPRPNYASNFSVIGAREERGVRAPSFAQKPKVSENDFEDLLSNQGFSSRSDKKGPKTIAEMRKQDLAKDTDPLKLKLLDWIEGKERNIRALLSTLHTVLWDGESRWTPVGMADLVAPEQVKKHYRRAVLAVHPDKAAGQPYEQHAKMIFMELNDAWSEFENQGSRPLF

Proto-oncogene tyrosine-protein kinase receptor Ret, sequence (P07949 whole entry): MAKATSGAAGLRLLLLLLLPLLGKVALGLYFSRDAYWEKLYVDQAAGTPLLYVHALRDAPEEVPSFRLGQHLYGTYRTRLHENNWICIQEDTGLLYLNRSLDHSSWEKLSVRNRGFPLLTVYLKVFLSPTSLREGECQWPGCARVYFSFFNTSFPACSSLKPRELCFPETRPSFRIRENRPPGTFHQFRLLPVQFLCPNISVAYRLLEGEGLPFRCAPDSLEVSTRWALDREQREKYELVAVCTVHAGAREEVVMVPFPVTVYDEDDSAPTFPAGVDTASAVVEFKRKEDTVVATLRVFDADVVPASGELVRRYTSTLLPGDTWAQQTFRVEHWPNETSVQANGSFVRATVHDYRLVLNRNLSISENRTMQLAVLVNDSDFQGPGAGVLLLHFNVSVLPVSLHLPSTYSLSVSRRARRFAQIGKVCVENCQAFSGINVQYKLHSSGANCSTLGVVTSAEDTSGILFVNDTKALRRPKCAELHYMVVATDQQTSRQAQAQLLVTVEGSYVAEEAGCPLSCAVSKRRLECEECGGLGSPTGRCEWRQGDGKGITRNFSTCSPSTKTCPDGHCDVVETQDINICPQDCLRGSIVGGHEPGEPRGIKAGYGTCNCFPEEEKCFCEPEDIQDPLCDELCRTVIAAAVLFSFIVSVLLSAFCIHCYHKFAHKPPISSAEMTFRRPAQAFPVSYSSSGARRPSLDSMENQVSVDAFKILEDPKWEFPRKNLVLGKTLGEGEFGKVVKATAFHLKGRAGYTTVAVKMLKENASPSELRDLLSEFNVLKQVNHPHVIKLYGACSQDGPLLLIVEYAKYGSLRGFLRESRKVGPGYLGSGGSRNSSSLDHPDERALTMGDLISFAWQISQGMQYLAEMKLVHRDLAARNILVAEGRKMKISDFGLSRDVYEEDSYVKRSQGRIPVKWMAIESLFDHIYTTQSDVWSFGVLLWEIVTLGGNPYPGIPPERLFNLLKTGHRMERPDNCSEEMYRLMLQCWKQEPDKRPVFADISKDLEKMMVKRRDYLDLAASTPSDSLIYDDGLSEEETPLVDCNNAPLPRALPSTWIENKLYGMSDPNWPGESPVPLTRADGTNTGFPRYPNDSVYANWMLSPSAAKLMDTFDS
Dual specificity protein kinase CLK1, sequence (P49759 whole entry): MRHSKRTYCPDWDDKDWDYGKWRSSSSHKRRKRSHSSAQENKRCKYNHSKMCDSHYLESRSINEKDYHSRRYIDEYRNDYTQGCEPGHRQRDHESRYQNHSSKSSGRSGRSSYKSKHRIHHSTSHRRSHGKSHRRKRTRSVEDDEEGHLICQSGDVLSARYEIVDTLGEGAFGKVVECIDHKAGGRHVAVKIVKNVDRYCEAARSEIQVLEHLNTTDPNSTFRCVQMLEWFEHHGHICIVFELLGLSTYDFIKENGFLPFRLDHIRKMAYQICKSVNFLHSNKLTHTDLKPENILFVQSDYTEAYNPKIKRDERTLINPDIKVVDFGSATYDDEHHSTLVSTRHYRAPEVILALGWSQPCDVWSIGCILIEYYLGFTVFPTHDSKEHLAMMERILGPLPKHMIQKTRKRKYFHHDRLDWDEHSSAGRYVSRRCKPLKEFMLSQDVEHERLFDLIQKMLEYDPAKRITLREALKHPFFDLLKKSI
AP2-associated protein kinase 1, sequence (Q2M2I8 whole entry): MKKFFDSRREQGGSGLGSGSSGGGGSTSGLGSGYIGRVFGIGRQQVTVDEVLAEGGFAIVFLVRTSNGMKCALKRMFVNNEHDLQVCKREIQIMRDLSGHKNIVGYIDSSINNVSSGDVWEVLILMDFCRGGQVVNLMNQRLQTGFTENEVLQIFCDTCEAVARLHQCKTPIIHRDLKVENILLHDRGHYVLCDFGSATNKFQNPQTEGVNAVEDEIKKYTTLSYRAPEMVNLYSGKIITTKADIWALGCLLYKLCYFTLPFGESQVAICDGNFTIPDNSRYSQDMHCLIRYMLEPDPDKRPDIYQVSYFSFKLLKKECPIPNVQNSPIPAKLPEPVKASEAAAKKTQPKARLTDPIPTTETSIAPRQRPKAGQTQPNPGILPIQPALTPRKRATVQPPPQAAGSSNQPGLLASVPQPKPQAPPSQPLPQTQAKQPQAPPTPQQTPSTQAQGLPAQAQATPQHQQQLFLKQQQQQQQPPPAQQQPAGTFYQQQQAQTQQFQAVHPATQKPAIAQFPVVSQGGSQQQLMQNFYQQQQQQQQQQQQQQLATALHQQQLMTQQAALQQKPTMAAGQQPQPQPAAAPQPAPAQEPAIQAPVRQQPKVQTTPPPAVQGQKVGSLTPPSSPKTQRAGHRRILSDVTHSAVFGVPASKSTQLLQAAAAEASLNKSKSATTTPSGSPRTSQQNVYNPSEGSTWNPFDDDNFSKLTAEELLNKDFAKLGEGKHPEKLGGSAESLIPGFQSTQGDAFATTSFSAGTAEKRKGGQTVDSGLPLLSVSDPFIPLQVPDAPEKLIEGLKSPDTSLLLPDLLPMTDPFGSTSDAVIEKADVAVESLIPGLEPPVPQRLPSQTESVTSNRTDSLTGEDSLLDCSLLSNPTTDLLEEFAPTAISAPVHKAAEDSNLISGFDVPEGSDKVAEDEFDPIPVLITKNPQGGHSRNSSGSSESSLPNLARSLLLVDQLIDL

Regarding `Oc1ccc(-c2nc(-c3ccncc3)c(-c3ccc(F)cc3)[nH]2)cc1` [SB-202190], the Kd (usually the concentration at which binding is half-saturated) is greater than 10 µM in experiment [1], greater than 10 µM in experiment [2], greater than 10 µM in experiment [3] and 0.79 µM in experiment [4].
`COCC(=O)NC/C=C/c1ccc2ncnc(Nc3ccc(Oc4ccc(C)nc4)c(C)c3)c2c1` [CP-724714]: the Kd in experiment [1], in experiment [5], in experiment [2], in experiment [3] and in experiment [4] was greater than 10 µM each time.
`Nc1nc(Nc2ccc(S(N)(=O)=O)cc2)nn1C(=O)c1c(F)cccc1F` [JNJ-7706621]: the Kd in experiment [4] is greater than 10 µM.
Consider `NC(=O)c1ccc(-c2nc(-c3ccc4c(c3)OCO4)c(-c3ccccn3)[nH]2)cc1` [SB-431542], for which the Kd in experiment [1], in experiment [5], in experiment [2], in experiment [3] and in experiment [4] was greater than 10 µM in each case.
For the compound `CCOc1cc2ncc(C#N)c(Nc3ccc(F)c(Cl)c3)c2cc1NC(=O)/C=C/CN(C)C` [PELITINIB], the Kd in experiment [5] was 0.0064 µM; in experiment [3] it was greater than 10 µM.
